# Tests used:
# monoamine oxidase (MAO) = assay: Monoamine oxidase (MAO-Glo) activity assay; format: biochemical; conditions: four parameter fit; for IC50: 60-min reaction, read-out: MAO Dose Response IC50
# Protocol: The Monoamine oxidase (MAO) activity measurements were performed using a MAO-Glo assay kit (Promega, Madison, WI), in a 384-well plate (Proxiplate 384 Plus, Perkin Elmer, Waltham, MA) with the miniaturization of final assay volume to 20 µL, as per the manufacturer’s instructions. In brief, MAO reactions were terminated after a 60-min enzymatic reaction, by the addition of reconstituted Luciferin Detection Reagent. Following a 20-min incubation with the detection reagent, the luminescence was measured using a multi-label plate reader (Envision, Perkin Elmer). IC50 values were estimated by fitting percentage inhibition vs. compound concentration in a variable slope (four parameter) fit.
# [1] = test system: total tau (TAU5) in A152T neurons; assay: Western blot of total tau in A152T neurons; format: cell-based, human; conditions: pre-treatment 6 hr then 1 μM QC-01–175 for 18 hr, western blot
# Excerpt: (§1) Cells from individuals carrying the tau risk variant A152T (c.1407G > A; NCBI RefSeq NM_001123066, rs143624519), the autosomal dominant mutation P301L (c.C1907T; NCBI NM_001123066, rs63751273), or age-matched non-mutant WT tau were employed in this study (Figure 2—source data 1). Dermal fibroblasts from the tau-P301L carrier and the healthy individual were generated from a skin biopsy from subjects within the MGH Frontotemporal Disorders Unit as part of the MGH Neurodegeneration Repository. Approval for human subjects’ work was obtained under a Partners/MGH-approved IRB Protocol (#2010P001611/MGH). Fibroblasts were reprogrammed into iPSCs, which were subsequently converted into cortical-enriched neural progenitor cells (NPCs) and differentiated into neuronal cells as previously described ([Almeida et al., 2012]; [Seo et al., 2017]; [Silva et al., 2016]; [Sheridan et al., 2011]) (Silva MC, Manuscript in preparation, 2019). Briefly, cells were cultured in 6-well (Fisher Scientific Corning, Pittsburgh, PA) or 96-well (Fisher Scientific Corning) plates coated with poly-ornithine (20 μg/mL in water, Sigma, St. Louis, MO) and laminin (5 μg/mL in PBS, Sigma) (POL-coated), in DMEM/F12-B27 media [70% DMEM (Gibco, Carlsbad, CA), 30% Ham’s-F12 (Fisher Scientific Corning), 2% B27 (Gibco), 1% penicillin-streptomycin (Gibco)]. Media was supplemented with EGF (20 ng/mL, Sigma), FGF (20 ng/mL, Stemgent, Cambridge, MA) and heparin (5 μg/mL, Sigma), to promote NPC proliferation and expansion. The growth factors were withdrawn to promote neural differentiation for 6 to 8 weeks, with half media change two times per week. Cell lines’ identity was authenticated by SANGER sequencing, karyotyping and ACGH analysis at different stages of culture maintenance from iPSC to NPC. All working cell lines tested negative for mycoplasma contamination.
# (§2) Compound treatment in six-well plates was performed in 2 mL media volume by removing 1 mL of conditioned media from the culture and adding 1 mL of new media pre-mixed with the compound at the appropriate 2X concentration, followed by incubation at 37°C for the designated period of time. Compound treatment in 96-well plates was performed in 100 μL media volume by adding compound directly to each well, followed by incubation at 37°C. When testing the effect of drug pre-treatment, the first compound was added as described above for the period of time needed, and then QC-01–175 was added directly onto the media without media exchange.
# (§3) Neurons differentiated in six-well plates for 6 weeks were washed and collected in PBS, lysed in RIPA buffer (Boston Bio-Products, Boston, MA) supplemented with 2% SDS (Sigma), protease inhibitors cocktail (Roche Complete Mini tablets, Mannheim, Germany), and phosphatase inhibitors cocktail (Sigma), followed by water sonication (Bransonic Ultrasonic Baths, Thomas Scientific, Danbury, CT) and 20,000 g centrifugation for 20 min. Supernatants were transferred to new tubes and total protein concentration was quantified with the Pierce BCA Protein Assay Kit (ThermoFisher Scientific, Carlsbad, CA). Human recombinant tau protein ladder was purchased from Sigma. Electrophoresis were performed with the Novex NuPAGE SDS-PAGE Gel System (Invitrogen, Carlsbad, CA), by running 10 μg of total protein (pre-boiled in SDS-DTT loading buffer, NEB, Ipswich, MA) on pre-cast SDS-PAGE. Gels were transferred onto PVDF membranes (EMD Millipore) using standard procedures. Membranes were blocked in 5% BSA (Sigma) in Tris-buffered saline with Tween-20 (TBST/Biorad, Hercules, CA) for 2 hr, incubated overnight with primary antibody (see antibody section) at 4°C, followed by corresponding HRP-linked secondary antibody incubation (Cell Signaling Technology, Danvers, MA). […]
# [2] = biological target: T1, recombinant human tau Tau-441(WT) (Homo sapiens, UniProt P10636); assay: Bio-layer interferometry (BLI) biosensor assay, tau WT; format: binding; conditions: BLI steady-state analysis, immobilized biotinylated tau; Figure 1—figure supplement 1B
# T1 construct: biotin (chemical label, NHS-PEG4); purchased SignalChem T08-54BN; host or cells: E. coli
# T1 sequence (P10636 1-441 isoform P10636-8): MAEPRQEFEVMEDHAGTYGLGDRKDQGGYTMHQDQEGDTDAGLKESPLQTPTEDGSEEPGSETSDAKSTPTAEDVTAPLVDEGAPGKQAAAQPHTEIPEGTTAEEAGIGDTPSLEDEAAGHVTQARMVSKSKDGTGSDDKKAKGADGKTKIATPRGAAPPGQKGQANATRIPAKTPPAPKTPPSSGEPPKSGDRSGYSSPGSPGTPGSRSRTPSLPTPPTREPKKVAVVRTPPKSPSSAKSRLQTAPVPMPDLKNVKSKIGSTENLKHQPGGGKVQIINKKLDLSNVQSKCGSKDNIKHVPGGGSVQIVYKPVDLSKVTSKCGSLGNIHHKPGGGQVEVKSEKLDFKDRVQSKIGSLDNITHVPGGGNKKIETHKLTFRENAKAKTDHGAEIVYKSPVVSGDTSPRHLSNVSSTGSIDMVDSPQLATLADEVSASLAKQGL
# Protocol: (§4) BLI was performed in the Octet Red384 instrument (ForteBio, Fremont CA, USA) with 1X PBS and 0.01% Brij-35 as the assay buffer. […] The biotinylated protein samples for BLI were purified in 1X phosphate buffered saline (PBS). Streptavidin (SA) sensors were used to measure the biophysical interaction between the small molecules and biotinylated tau. Prior to the initiation of BLI, the SA sensors were soaked by dipping in 200 μL of assay buffer in a 96-well Greiner Bio-One Black flat bottom plate (Greiner, Monroe NC, USA Cat.655209). The assay was performed in 80 μL volume in Greiner Bio-One 384-well black flat bottom PP plates (Greiner, Cat.781209) with an initial baseline step, followed by loading of 250 nM biotinylated tau protein. The small molecules samples and recombinant proteins were arranged in the 384-well plate according to a plate map recommended for the eight-channel mode kinetic analysis, where the sensors move from low to high concentration of small molecule samples. Subsequent steps included a second baseline (120 s), followed by association (240 s) and dissociation (240 s) cycles. […] When Req option is selected, Fortebio’s software calculates affinity constants based on the Req values determined from the curve fits. […]
# [3] = biological target: T2, recombinant human tau Tau-441(A152T) (Homo sapiens, UniProt P10636, A469T); assay: Bio-layer interferometry (BLI) biosensor assay, tau A152T; format: binding; conditions: BLI steady-state analysis, immobilized biotinylated tau; Figure 1—figure supplement 1B; read-out: KD, Tau A152T
# T2 construct: biotin (chemical label, NHS-PEG4); purchased SignalChem T08-56VN; host or cells: E. coli
# T2 sequence (P10636 1-441 isoform P10636-8 A152T): as the sequence (P10636 1-441 isoform P10636-8) above, with A152T counted along it
# Protocol: BLI was performed in the Octet Red384 instrument (ForteBio, Fremont CA, USA) with 1X PBS and 0.01% Brij-35 as the assay buffer. […] The biotinylated protein samples for BLI were purified in 1X phosphate buffered saline (PBS). Streptavidin (SA) sensors were used to measure the biophysical interaction between the small molecules and biotinylated tau. Prior to the initiation of BLI, the SA sensors were soaked by dipping in 200 μL of assay buffer in a 96-well Greiner Bio-One Black flat bottom plate (Greiner, Monroe NC, USA Cat.655209). The assay was performed in 80 μL volume in Greiner Bio-One 384-well black flat bottom PP plates (Greiner, Cat.781209) with an initial baseline step, followed by loading of 250 nM biotinylated tau protein. The small molecules samples and recombinant proteins were arranged in the 384-well plate according to a plate map recommended for the eight-channel mode kinetic analysis, where the sensors move from low to high concentration of small molecule samples. Subsequent steps included a second baseline (120 s), followed by association (240 s) and dissociation (240 s) cycles. […] Data analysis was performed using Data Acquisition HT 11.0 software following reference subtraction (an average of two sensors with DMSO) using a 1:1 binding model and an individual fit of each replicate. The equilibrium dissociation constant (KD) was estimated using data at equilibrium from each available small molecule concentration with steady-state analysis. The instrument manufacturer (Fortebio, article #137) recommends the steady state option for analyzing interactions that are either low affinity or very fast on-and-off affinity rates. […] When Req option is selected, Fortebio’s software calculates affinity constants based on the Req values determined from the curve fits. In the steady-state analysis, Req is plotted against the small molecule concentration to infer the Rmax. […] As per the instrument manufacturer’s instructions, if all curves have reached equilibrium, these two sets of values correspond to ‘Response,’ and Req values should match. […]
# [4] = biological target: T3, recombinant human tau Tau-441(P301L) (Homo sapiens, UniProt P10636, P618L); assay: Bio-layer interferometry (BLI) biosensor assay, tau P301L; format: binding; conditions: BLI steady-state analysis, immobilized biotinylated tau; Figure 1—figure supplement 1B
# T3 construct: biotin (chemical label, NHS-PEG4); purchased SignalChem T08-56FN; host or cells: E. coli
# T3 sequence (P10636 1-441 isoform P10636-8 P301L): as the sequence (P10636 1-441 isoform P10636-8) above, with P301L counted along it
# Protocol: as §4
# [5] = test system: P-tau S396 in A152T neurons; assay: Western blot of P-tau S396 in A152T neurons; format: cell-based, human; conditions: 24 hr, across biological replicates
# Excerpt: as §1, §2, §3
smiles,measurement,setting,value
"N[C@@H]1C[C@H]1c1ccccc1 (racemic) [Parnate, Tranylcypromine]",IC50,monoamine oxidase (MAO),0.057 µM
same,MAO Dose Response Hill Slope,monoamine oxidase (MAO),1.504
same,MAO Dose Response Log IC50,monoamine oxidase (MAO),-1.240
"CO/C1=C\C(C)=C\[C@@H](C)[C@@H](O)[C@@H](C)C/C(C)=C/C=C/[C@H](OC)[C@@H]([C@@H](C)[C@@H](O)[C@H](C)[C@@]2(O)C[C@@H](O)[C@H](C)[C@@H](C(C)C)O2)OC1=O [bafilomycin A1, Bafilomycin A1, reference compound]",effect of 6 hr pre-treatment on QC-01–175-mediated tau degradation (total tau and P-tau S396),[1],did not reverse the degrader effect and further promoted tau clearance
Nc1cccc2c1C(=O)N(C1CCC(=O)NC1=O)C2=O (centres unmarked) [Pomalidomide],IC50,monoamine oxidase (MAO),> 50 µM
same,MAO Dose Response Hill Slope,monoamine oxidase (MAO),0.108
"COc1cc(OCc2ccccn2)ccc1/C=C/c1cc(/C=C/c2ccc3cc[nH]c3c2)n[nH]1 [PE859, reference compound]",Kd,[2],22 ± 2.78 µM
same,Kd,[3],22.1 ± 3.26 µM
same,Kd,[4],8.8 ± 1.11 µM
"CC(C)C[C@H](NC(=O)[C@H](CCc1ccccc1)NC(=O)CN1CCOCC1)C(=O)N[C@@H](Cc1ccccc1)C(=O)N[C@@H](CC(C)C)C(=O)[C@@]1(C)CO1 [carfilzomib, Carfilzomib, reference compound]",effect of 6 hr pre-treatment on QC-01–175-mediated tau degradation (total tau and P-tau S396),[1],caused a concentration-dependent rescue of the effect of QC-01–175
"NS(=O)(=O)OC[C@@H]1C[C@@H](n2ccc3c(N[C@H]4CCc5ccccc54)ncnc32)C[C@@H]1O [MLN4924, reference compound]",effect of 6 hr pre-treatment on QC-01–175-mediated tau degradation (total tau and P-tau S396),[1],caused a concentration-dependent rescue of the effect of QC-01–175
"Nc1cccc2c1CN(C1CCC(=O)NC1=O)C2=O (centres unmarked) [lenalidomide, Lenalidomide, reference compound]",up-regulation of P-tau S396,[5]; 1 μM,~ 30%
same,up-regulation of P-tau S396,[5]; 10 μM,~90%
same,effect of 6 hr pre-treatment on QC-01–175-mediated tau degradation (total tau and P-tau S396),[1],reversed QC-01–175-mediated tau degradation in a concentration-dependent manner

# Reference: PMC6450673, “Targeted degradation of aberrant tau in frontotemporal dementia patient-derived neuronal cell models” (eLife, 2019)
